The test system of experiment [1] is cultured human mast cells. The experiment is described as follows: Degranulation inhibition test using cultured human mast cells (IgE cross-linking, β-Hexosaminidase release). The format is cell-based. As to conditions: Mast cell; Tables 1-x, compounds A; cultured human mast cells; read-out: human degranulation ave. IC50. In a few lines: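 CD34+ cord-blood cells cultured ≥8 weeks with SCF/IL-6/IL-3; FcεRI primed 5 days with rhIL-4 (1 ng/mL) and hIgE (0.5 μg/mL). Compound (0.1% DMSO) preincubated 10 min at 37 °C, then anti-IgE (final 10 μg/mL) 30 min; released β-hexosaminidase read at 405 nm versus total lysate, IC50 (M).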

Experiment [2] addresses GST-Syk Full Protein (human) (Homo sapiens, UniProt P43405). The experiment is described as follows: Syk kinase inhibition test (HTRF method). The format is biochemical. As to conditions: Tables 1-x, compounds A; read-out: sykHTRF ave IC50. In a few lines:
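Human GST-Syk full-length (6.4 nM) phosphorylated biotin-EDPDYEWPSA-NH2 (250 nM) with 100 μM ATP in HEPES pH 7.0/MgCl2 buffer, 2% DMSO, 30 min at room temperature. EDTA stop, then HTRF detection (streptavidin-XL665, Eu anti-phosphotyrosine) after 1 h; 665/620 ratio read.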

The structures appear in SMILES notation. Counter-ions that a name gives are not always drawn.

As to `Cc1ccnc(Nc2cccc(-c3cnc(N(C)C4CCN(C(=O)CO)CC4)s3)n2)c1` [Compound A-459, 2-hydroxy-1-[4-(N-methyl-N-{5-[6-(4-methylpyridin-2-ylamino)pyridin-2-yl]thiazol-2-yl}amino)piperidin-1-yl]ethanone], the concentration for half-maximal inhibition (IC50) in experiment [1] is 100 to 1000 nM; in experiment [2] it was below 100 nM.
Taken in the same sequence, the figures for `CNC(=O)N1CCC(N(C)c2ncc(-c3cccc(Nc4cc(C)ccn4)n3)s2)CC1` [Compound A-460, N-methyl-4-(N′-methyl-N′-{5-[6-(4-methylpyridin-2-ylamino)pyridin-2-yl]thiazol-2-yl}amino)piperidine-1-carboxamide] were 100 to 1000 nM and below 100 nM.
On the same counts, the results for `CC(=O)NCC(=O)N1CCC(N(C)c2ncc(-c3cccc(Nc4cc(C)ccn4)n3)s2)CC1` [Compound A-461, N-{2-[4-(N′-methyl-N′-{5-[6-(4-methylpyridin-2-ylamino)pyridin-2-yl]thiazol-2-yl}amino)piperidin-1-yl]-2-oxoethyl}acetamide] are 100 to 1000 nM and below 100 nM.
For `Cc1ccnc(Nc2cccc(-c3cnc(N4CCN(CC(=O)O)C(=O)C4)s3)n2)c1` [Compound A-464, (4-{5-[6-(4-methylpyridin-2-ylamino)pyridin-2-yl]thiazol-2-yl}-2-oxopiperazin-1-yl)acetic acid dihydrochloride], the concentration for half-maximal inhibition (IC50) in experiment [1] is above 1000 nM; in experiment [2] it was below 100 nM.
Take `Cc1ccnc(Nc2cccc(-c3cnc(N4CCN(CC(N)=O)C(=O)C4)s3)n2)c1` [Compound A-465, 2-(4-{5-[6-(4-methylpyridin-2-ylamino)pyridin-2-yl]thiazol-2-yl}-2-oxopiperazin-1-yl)acetamide]: the IC50 in experiment [1] is 100 to 1000 nM; in experiment [2], below 100 nM.
Taken in the same sequence, the figures for `CNC(=O)CN1CCN(c2ncc(-c3cccc(Nc4cc(C)ccn4)n3)s2)CC1=O` [Compound A-466, N-methyl-2-(4-{5-[6-(4-methylpyridin-2-ylamino)pyridin-2-yl]thiazol-2-yl}-2-oxopiperazin-1-yl)acetamide] were above 1000 nM and below 100 nM.
`CNC(=O)CN(C)C(=O)C1CCN(c2ncc(-c3cccc(Nc4cc(C)ccn4)n3)s2)CC1` [Compound A-469, N-methyl-N-methylcarbamoylmethyl-1-{5-[6-(4-methylpyridin-2-ylamino)pyridin-2-yl]thiazol-2-yl}piperidine-4-carboxamide]: the IC50 is 100 to 1000 nM in experiment [1] and below 100 nM in experiment [2].
Taken in the same sequence, the figures for `Cc1ccnc(Nc2cccc(-c3cnc(N(C)C4CCOCC4)s3)n2)c1` [Compound A-470, N-methyl-N-{5-[6-(4-methylpyridin-2-ylamino)pyridin-2-yl]thiazol-2-yl}-N-tetrahydropyran-4-ylamine] were 100 to 1000 nM and below 100 nM.
Taken in the same sequence, the figures for `Cc1ccnc(Nc2cccc(-c3cnc(N(C)Cc4ccc(O)cc4)s3)n2)c1` [Compound A-471, 4-[(N-methyl-N-{5-[6-(4-methylpyridin-2-ylamino)pyridin-2-yl]thiazol-2-yl}amino)methyl]phenol] were 100 to 1000 nM and below 100 nM.
On the same counts, the results for `CC(=O)N[C@@H]1CCN(c2ncc(-c3cccc(Nc4cc(C)ccn4)n3)s2)C1` [Compound A-472, N—((R)-1-{5-[6-(4-methylpyridin-2-ylamino)pyridin-2-yl]thiazol-2-yl}pyrrolidin-3-yl)acetamide] are 100 to 1000 nM and below 100 nM.
As to `Cc1ccnc(Nc2cccc(-c3cnc(N4CC[C@@H](N)C4)s3)n2)c1` [Compound A-473, (R)-1-{5-[6-(4-methylpyridin-2-ylamino)pyridin-2-yl]thiazol-2-yl}pyrrolidin-3-ylamine], the IC50 in experiment [1] was above 1000 nM; in experiment [2], below 100 nM.
On the same counts, the results for `Cc1ccnc(Nc2cccc(-c3cnc(N4CCCC(C(=O)O)C4)s3)n2)c1` (stereo not shown) [Compound A-474, 1-{5-[6-(4-methylpyridin-2-ylamino)pyridin-2-yl]thiazol-2-yl}piperidine-3-carboxylic acid] are above 1000 nM and below 100 nM.
Taken in the same sequence, the figures for `Cc1ccnc(Nc2cccc(-c3cnc(N4CC[C@@H](NC(=O)CO)C4)s3)n2)c1` [Compound A-475, 2-hydroxy-N—((R)-1-{5-[6-(4-methylpyridin-2-ylamino)pyridin-2-yl]thiazol-2-yl}pyrrolidin-3-yl)acetamide] were 100 to 1000 nM and below 100 nM.
For the compound `Cc1ccnc(Nc2cccc(-c3cnc(N4CCCC(C(N)=O)C4)s3)n2)c1` (stereo not shown) [Compound A-476, 1-{5-[6-(4-methylpyridin-2-ylamino)pyridin-2-yl]thiazol-2-yl}piperidine-3-carboxamide], the IC50 in experiment [1] and in experiment [2] was below 100 nM each time.
On to `CNC(=O)C1CCCN(c2ncc(-c3cccc(Nc4cc(C)ccn4)n3)s2)C1` (stereo not shown) [Compound A-477, N-methyl-1-{5-[6-(4-methylpyridin-2-ylamino)pyridin-2-yl]thiazol-2-yl}piperidine-3-carboxamide], for which the 50% inhibitory concentration (IC50) in experiment [1] is 100 to 1000 nM; in experiment [2] it was below 100 nM.
On the same counts, the results for `Cc1ccnc(Nc2cccc(-c3cnc(N4CCCC(C(=O)NCCO)C4)s3)n2)c1` (stereo not shown) [Compound A-478, N-(2-hydroxyethyl)-1-{5-[6-(4-methylpyridin-2-ylamino)pyridin-2-yl]thiazol-2-yl}piperidine-3-carboxamide] are 100 to 1000 nM and below 100 nM.
For `Cc1ccnc(Nc2cccc(-c3cnc(N4CC[C@@H](O)C4)s3)n2)c1` [Compound A-479, (R)-1-{5-[6-(4-methylpyridin-2-ylamino)pyridin-2-yl]thiazol-2-yl}pyrrolidin-3-ol], the IC50 in experiment [1] was 100 to 1000 nM; in experiment [2], below 100 nM.
On the same counts, the results for `Cc1ccnc(Nc2cccc(-c3cnc(N(C)[C@H]4CC[C@H](O)CC4)s3)n2)c1` [Compound A-480, trans-4-(N-methyl-N-{5-[6-(4-methylpyridin-2-ylamino)pyridin-2-yl]thiazol-2-yl}amino)cyclohexanol] are 100 to 1000 nM and below 100 nM.
On the same counts, the results for `Cc1ccnc(Nc2cccc(-c3cnc(N4CCC(NC(=O)CO)CC4)s3)n2)c1` [Compound A-482, 2-hydroxy-N-(1-{5-[6-(4-methylpyridin-2-ylamino)pyridin-2-yl]thiazol-2-yl}piperidin-4-yl)acetamide] are 100 to 1000 nM and below 100 nM.
On the same counts, the results for `Cc1ccnc(Nc2cccc(-c3cnc(N4CCC(N(C)C(=O)CO)CC4)s3)n2)c1` [Compound A-483, 2-hydroxy-N-methyl-N-(1-{5-[6-(4-methylpyridin-2-ylamino)pyridin-2-yl]thiazol-2-yl}piperidin-4-yl)acetamide] are 100 to 1000 nM and below 100 nM.
As to `Cc1ccnc(Nc2cccc(-c3cnc(N4CCC(CNC(=O)CO)CC4)s3)n2)c1` [Compound A-486, 2-hydroxy-N-(1-{5-[6-(4-methylpyridin-2-ylamino)pyridin-2-yl]thiazol-2-yl}piperidin-4-ylmethyl)acetamide], the IC50 in experiment [1] was 100 to 1000 nM; in experiment [2], below 100 nM.
Take `CC(=O)NCC1CCN(c2ncc(-c3cccc(Nc4cc(C)ccn4)n3)s2)CC1` [Compound A-487, N-(1-{5-[6-(4-methylpyridin-2-ylamino)pyridin-2-yl]thiazol-2-yl}piperidin-4-ylmethyl)acetamide]: the IC50 is 100 to 1000 nM in experiment [1] and below 100 nM in experiment [2].
On the same counts, the results for `CNC(=O)[C@@H]1CCCN1c1ncc(-c2cccc(Nc3cc(C)ccn3)n2)s1` [Compound A-488, N-methyl-(S)-1-{5-[6-(4-methylpyridin-2-ylamino)pyridin-2-yl]thiazol-2-yl}pyrrolidine-2-carboxamide dihydrochloride] are 100 to 1000 nM and below 100 nM.
Taken in the same sequence, the figures for `Cc1ccnc(Nc2cccc(-c3cnc(N4CC[C@@H](NS(C)(=O)=O)C4)s3)n2)c1` [Compound A-489, N—((R)-1-{5-[6-(4-methylpyridin-2-ylamino)pyridin-2-yl]thiazol-2-yl}pyrrolidin-3-yl)methanesulfonamide] were 100 to 1000 nM and below 100 nM.
Taken in the same sequence, the figures for `CO[C@@H]1CCN(c2ncc(-c3cccc(Nc4cc(C)ccn4)n3)s2)C1` [Compound A-490, N-{6-[2-((R)-3-methoxypyrrolidin-1-yl)thiazol-5-yl]pyridin-2-yl}-N-(4-methylpyridin-2-yl)amine] were 100 to 1000 nM and below 100 nM.
Take `Cc1ccnc(Nc2cccc(-c3cnc(N4CCCC(COCC(=O)O)C4)s3)n2)c1` (stereo not shown) [Compound A-497, (1-{5-[6-(4-methylpyridin-2-ylamino)pyridin-2-yl]thiazol-2-yl}piperidin-3-ylmethoxy)acetic acid dihydrochloride]: the IC50 is above 1000 nM in experiment [1] and below 100 nM in experiment [2].
Taken in the same sequence, the figures for `Cc1ccnc(Nc2cccc(-c3cnc(N4CCCC(CO)C4)s3)n2)c1` (stereo not shown) [Compound A-498, (1-{5-[6-(4-methylpyridin-2-ylamino)pyridin-2-yl]thiazol-2-yl}piperidin-3-yl)methanol] were 100 to 1000 nM and below 100 nM.
Taken in the same sequence, the figures for `Cc1ccnc(Nc2cccc(-c3cnc(N4CCCC(COCC(N)=O)C4)s3)n2)c1` (stereo not shown) [Compound A-499, 2-(1-{5-[6-(4-methylpyridin-2-ylamino)pyridin-2-yl]thiazol-2-yl}piperidin-3-ylmethoxy)acetamide] were 100 to 1000 nM and below 100 nM.
Consider `Cc1ccnc(Nc2cccc(-c3cnc(N4CCC(C)(C(N)=O)CC4)s3)n2)c1` [Compound A-500, 4-methyl-1-{5-[6-(4-methylpyridin-2-ylamino)pyridin-2-yl]thiazol-2-yl}piperidine-4-carboxamide], for which the values for the IC50 in experiment [1] and in experiment [2] were 100 to 1000 nM and below 100 nM, respectively.

For the origin of these results see patent publication US7803801B2, “Aminopyridine compounds having Syk inhibitory activity” (Japan Tobacco, Inc., priority 2005, dated 2010).
